# Patent US20260014246A1, “TREATMENT METHODS FOR VIRAL INFECTIONS” (priority 2022, published 2026)
# Read-outs that look alike come from different tables or passages of the source. Peptide text beside a SMILES is read from it.
# What was measured:
# [1] = system: Vero-E6 cells; assay: Cytotoxic effects in Vero-E6 cells (Reliablue viability); type: cell-based
# Protocol: Data for peptide 4F (Ac-[…]-NH2; SEQ ID NO: 34) is also provided. In this example, Vero-E6 cells (96 well plate) were grown in EMEM containing 10% FBS and Pen/Strep at 37° C. and 5% CO2. Once cells reached 80% confluence, medium was replaced with fresh complete medium containing the indicated concentration of peptide (FIGS. 6A-B) or peptide complexed with DMPC (1:5 ratio weight:weight). Incubation period proceeded for 24 or 48 hrs. Cells were washed and replaced with complete medium containing fluorescent Reliablue reagent. Viability was then measured. Data are presented as percent viability compared to control (no additions). Results are presented as the mean±SEM.
# [2] = system: SARS-COV-2 Alpha; details: for IC50: Alpha
# [3] = system: SARS-COV-2 Alpha; assay: Remdizivir treatment of mice challenged with SARS-COV-2 Alpha; type: in vivo, female hACE2 Knock-in mice; details: 25 mg/kg bodyweight, single dose; 54000 pfu intranasal; untreated mice 20%
# [4] = system: H1N1; assay: Second challenge with active H1N1 after intranasal peptide-inactivated H1N1; type: in vivo, female C57BL/6J mice; details: 14 days
# [5] = system: SARS-COV-2 Alpha; assay: Rechallenge with active SARS-COV-2 Alpha after EVE18 inactivated SARS-COV-2 Alpha (homologous); type: in vivo, female hACE2 Knock-in mice; details: rechallenge with 54000 pfu SARS-COV-2 Alpha eight weeks after initial challenge; 14 days
# [6] = system: SARS-COV-2 Alpha; assay: Therapeutic dosing of EVE18 in mice challenged with SARS-COV-2 Alpha; type: in vivo, female hACE2 Knock-in mice
# [7] = system: SARS-COV-2 Alpha; assay: SARS-COV-2 Alpha pre-incubated with peptide and given intranasally to mice; type: in vivo, female hACE2 Knock-in mice; details: 54000 pfu pre-incubated ~45 min with 10 μM peptide; intranasal; 14 days
# [8] = system: SARS-COV-2 Delta; assay: Rechallenge with active SARS-COV-2 Delta after EVE18 inactivated SARS-COV-2 Alpha (heterologous); type: in vivo, female hACE2 Knock-in mice; details: rechallenge with 54000 pfu SARS-COV-2 Delta nine and seven weeks after initial challenge; two groups; 14 days
# [9] = system: SARS-COV-2 Delta; assay: SARS-COV-2 Delta pre-incubated with EVE18 and given intranasally to mice; type: in vivo, female hACE2 Knock-in mice; details: 54000 pfu SARS-COV-2 Delta pre-incubated ~45 min with 10 μM peptide; intranasal; 14 days
# [10] = system: H1N1A-California; type: in vivo, female C57BL/6J mice
# [11] = system: H1N1; assay: Sub-cutaneous EVE14 in mice challenged intranasally with H1N1; type: in vivo, female C57BL/6J mice
# [12] = system: H1N1; assay: Second H1N1 challenge of mice that received H1N1 and sub-cutaneous EVE14; type: in vivo, female C57BL/6J mice; details: second challenge 1200 pfu H1N1 three weeks after the first
# [13] = [peptide-lipid] complex (DMPC 1:5 weight:weight), 48 hours incubation
# [14] = 300 micrograms sub-cutaneous 2 hr prior to virus and second dose 24 hr after virus
molecule,measurement,setting,value
CC(=O)N[C@@H](CC(C)C)C(=O)N[C@@H](CCCNC(=N)N)C(=O)N[C@@H](CCCCN)C(=O)N[C@@H](CC(C)C)C(=O)N[C@@H](CCCNC(=N)N)C(=O)N[C@@H](CCCCN)C(=O)N[C@@H](CCCNC(=N)N)C(=O)N[C@@H](CC(C)C)C(=O)N[C@@H](CC(C)C)C(=O)N[C@@H](CCCNC(=N)N)C(=O)N[C@@H](CC(=O)O)C(=O)N[C@@H](Cc1c[nH]c2ccccc12)C(=O)N[C@@H](CC(C)C)C(=O)N[C@@H](CCCCN)C(=O)N[C@@H](C)C(=O)N[C@@H](Cc1ccccc1)C(=O)N[C@@H](Cc1ccc(O)cc1)C(=O)N[C@@H](CC(=O)O)C(=O)N[C@@H](CCCCN)C(=O)N[C@H](C(=O)N[C@@H](C)C(=O)N[C@@H](CCC(=O)O)C(=O)N[C@@H](CCCCN)C(=O)N[C@@H](CC(C)C)C(=O)N[C@@H](CCCCN)C(=O)N[C@@H](CCC(=O)O)C(=O)N[C@@H](C)C(=O)N[C@@H](Cc1ccccc1)C(N)=O)C(C)C [EVE4] (Ac-LRKLRKRLLRDWLKAFYDKVAEKLKEAF-NH2),cytotoxic effects,[1]; [13],lack of cytotoxic effects
same,cytotoxic effects,"[1]; peptide, 24 hours incubation",lack of cytotoxic effects
same,cytotoxic effects,"[1]; peptide, 48 hours incubation",lack of cytotoxic effects
same,antiviral activity in comparison to remdesivir,[2],greater antiviral activity than remdesivir
same,SARS-COV-2 positive area reduced to,[2]; 1 μM,~0
same,IC50,[2],3 to 4.5 µM
"CC[C@H](C)[C@H](NC(=O)[C@H](CCCNC(=N)N)NC(=O)[C@H](C)NC(=O)[C@H](Cc1c[nH]c2ccccc12)NC(=O)[C@H](CO)NC(=O)CNC(=O)[C@H](CC(C)C)NC(=O)[C@H](Cc1ccccc1)NC(=O)[C@H](CCCNC(=N)N)NC(=O)[C@H](CCCNC(=N)N)NC(=O)[C@H](Cc1ccccc1)NC(=O)CNC(C)=O)C(=O)N[C@@H](Cc1ccc(O)cc1)C(=O)N[C@@H](CCCNC(=N)N)C(=O)N[C@@H](C)C(=O)N[C@@H](Cc1ccccc1)C(=O)N[C@H](C(=O)NCC(N)=O)C(C)C [EVEmR18L, Ac-GFRRFLGSWARIYRAFVG-NH2] (Ac-GFRRFLGSWARIYRAFVG-NH2)",cytotoxic effects,[1]; [13],lack of cytotoxic effects
same,cytotoxic effects,"[1]; peptide, 24 hours incubation",lack of cytotoxic effects
same,cytotoxic effects,"[1]; peptide, 48 hours incubation",lack of cytotoxic effects
same,antiviral activity in comparison to remdesivir,[2],greater antiviral activity than remdesivir
same,reduction of the SARS-COV-2 positive area,[2]; 1 μM,approximately 80%
same,SARS-COV-2 positive area reduced to,[2]; 10 μM,~0
same,IC50,[2],3 to 4.5 µM
"CCC(CC)COC(=O)[C@H](C)N[P@](=O)(OC[C@H]1O[C@@](C#N)(c2ccc3c(N)ncnn23)[C@H](O)[C@@H]1O)Oc1ccccc1 [remdesivir, reference compound]",mouse survival,[3],40%
same,reduction of the SARS-COV-2 positive area,[2]; 1 μM,approximately 65%
Ac-GFRRFYGSIWRFIRAFVG-NH2 [EVE18],mortality after rechallenge,"[4]; mice first given peptide-treated H1N1 (~45 min, ~10 μM), rechallenged several weeks later with 1200 pfu active H1N1A-California",No mouse in this group died during this period
same,rechallenged mice survived,[5],~75%
same,mortality (timing),"[6]; 300 micrograms 24 hr, 48 hr and 72 hrs after 54000 pfu virus",delayed mortality
same,survival,"[6]; 300 micrograms 24 hr, 48 hr and 72 hrs after 54000 pfu virus, 10 days, virus alone 20%",50%
same,mortality (timing),[6]; [14],delayed the mortality
same,survival,[6]; [14],70%
same,survival,[7],All mice in this group survived
same,survival,[8],85%
same,survival,[9],All mice in this group survived
same,bodyweight loss,[10]; 14 days,No mouse in this group died or lost significant bodyweight
same,mortality (frank mortality or weight loss of 25%),[10]; 14 days,No mouse in this group died
Ac-RRFYGSIWRFIRAF-NH2 [EVE14],bodyweight loss after second challenge,"[4]; mice first given H1N1A pre-incubated with peptide for 60 minutes, second challenge 1200 pfu active H1N1 several weeks later",no mouse in the group which underwent a second H1N1 challenge lost significant bodyweight
same,weight loss,"[11]; 300 micrograms sub-cutaneously plus 150 microgram boosters (24, 48 hr or 24-96 hr), 1200 pfu H1N1 intranasal, compared to untreated mice",significant delay in their weight loss which also was blunted
same,weight loss,"[11]; Example 13, FIG. 14: 1200 pfu H1N1 intranasal, peptide sub-cutaneously",much reduced weight loss
same,survival (or bodyweight loss of less than 25%),[11]; both sub-cutaneous treatment groups compared to H1N1 alone,significantly increased survival
same,mice survived,[7],Ninety
same,mortality or weight loss after second challenge,[12],does not elicit mortality or weight loss
same,bodyweight loss,[10]; 14 days,incapable of inducing weight loss or frank death
same,death (frank death or 25% decrease in bodyweight),[10]; 14 days,incapable of inducing death
same,mortality (frank mortality or weight loss of 25%),[10]; 14 days,No mice in this group died
same,weight loss,[10]; 14 days,incapable of inducing weight loss
same,survival,"[10]; mouse, in vivo",survived this initial challenge
same,weight loss,"[10]; mouse, in vivo",lost little weight
